Results from ChEMBL document CHEMBL1130653, “Derivatization of the C12-C13 functional groups of epothilones A, B and C” (Bioorg Med Chem Lett, 1998).
In brackets after ≈: the same amount, converted by molar mass.

Assay: Cytotoxicity against L929 fibroblast cell line; Weak cytotoxic activity.
Type: functional, cell-based, Mus musculus
In the case of `C/C(=C\c1csc(C)n1)[C@@H]1C[C@H]2OC(=O)C[C@H](O)C(C)(C)C(=O)[C@H](C)[C@@H](O)[C@@H](C)CCC[C@H]2O1`, the IC50 is reported as “Weak cytotoxic activity”. For `C/C(=C\c1csc(C)n1)[C@@H]1CCCCCC[C@H](C)[C@H](O)[C@@H](C)C(=O)C(C)(C)C(O)CC(=O)O1` (stereo partly drawn), the IC50 was “Weak cytotoxic activity”. For `C/C(=C\c1csc(C)n1)[C@@H]1C[C@H]2OCC[C@H](O)C(C)(C)C(=O)[C@H](C)[C@@H](O)[C@@H](C)CCC[C@H]2O1`, the IC50 was “Weak cytotoxic activity”. In the case of `C/C(=C\c1csc(C)n1)[C@@H]1C[C@@H](O)[C@H](O)CCC[C@H](C)[C@H](O)[C@@H](C)C(=O)C(C)(C)C(O)CC(=O)O1` (stereo partly drawn), the IC50 is reported as “Weak cytotoxic activity”. For `C/C(=C\c1csc(C)n1)[C@H](O)C[C@H]1OC(=O)C[C@H](O)C(C)(C)C(=O)[C@H](C)[C@@H](O)[C@@H](C)CCC[C@@]1(C)O`, the IC50 was “Weak cytotoxic activity”. For `C/C(=C\c1csc(C)n1)[C@@H]1C[C@@H](O)[C@@H](O)CCC[C@H](C)[C@H](O)[C@@H](C)C(=O)C(C)(C)C(O)CC(=O)O1` (stereo partly drawn), the IC50 was “Weak cytotoxic activity”. For `C/C(=C\c1csc(C)n1)[C@@H]1C[C@@H]2OC(C)(C)O[C@@H]2CCC[C@H](C)[C@H](O)[C@@H](C)C(=O)C(C)(C)C(O)CC(=O)O1` (stereo partly drawn), the IC50 was “Weak cytotoxic activity”. For `C/C(=C\c1csc(C)n1)[C@@H]1C[C@H](O)[C@@](C)(Cl)CCC[C@H](C)[C@H](O)[C@@H](C)C(=O)C(C)(C)[C@@H](O)CC(=O)O1`, the IC50 was “Weak cytotoxic activity”. With `C/C(=C\c1csc(C)n1)[C@H]1C[C@H]2OCC[C@H](O)C(C)(C)C(=O)[C@H](C)[C@@H](O)[C@@H](C)CCC[C@H]2O1` the IC50 was “Weak cytotoxic activity”. With `C/C(=C\c1csc(C)n1)[C@H]1C[C@H]2OC(=O)C[C@H](O)C(C)(C)C(=O)[C@H](C)[C@@H](O)[C@@H](C)CCC[C@H]2O1` the IC50 was “Weak cytotoxic activity”. In the case of `C/C(=C\c1csc(C)n1)[C@@H]1C[C@H](O)[C@@H](Cl)CCC[C@H](C)[C@H](O)[C@@H](C)C(=O)C(C)(C)[C@@H](O)CC(=O)O1`, the IC50 is reported as “Weak cytotoxic activity”. In the case of `C/C(=C\c1csc(C)n1)[C@@H]1C[C@H](O)[C@@](C)(O)CCC[C@H](C)[C@H](O)[C@@H](C)C(=O)C(C)(C)C(O)CC(=O)O1` (stereo partly drawn), the IC50 is reported as “Weak cytotoxic activity”. With `C/C(=C\c1csc(C)n1)[C@@H]1C[C@H](O)[C@@]2(C)CCC[C@H](C)[C@H](O)[C@@H](C)C(=O)C(C)(C)C(CC(=O)O1)O2` the IC50 was “Weak cytotoxic activity”. In the case of `C/C(=C\c1csc(C)n1)[C@@H]1C[C@@H]2O[C@]2(C)CCC[C@H](C)[C@H](O)[C@@H](C)C(=O)C(C)(C)[C@@H](O)CC(=O)O1` [PATUPILONE], the IC50 is reported as “Weak cytotoxic activity”. For `C/C(=C\c1csc(C)n1)[C@@H]1C[C@@H]2O[C@@H]2CCC[C@H](C)[C@H](O)[C@@H](C)C(=O)C(C)(C)[C@@H](O)CC(=O)O1` [EPOTHILONE A], the IC50 was “Weak cytotoxic activity”. With `C/C(=C\c1csc(C)n1)[C@@H](O)C[C@H]1OC(=O)C[C@H](O)C(C)(C)C(=O)[C@H](C)[C@@H](O)[C@@H](C)CCC[C@@]1(C)O` the IC50 was “Weak cytotoxic activity”. In the case of `Cc1nc(CC(C)C(O)C[C@H]2OC(=O)C[C@H](O)C(C)(C)C(=O)[C@H](C)[C@@H](O)[C@@H](C)CCC[C@H]2O)cs1` (stereo partly drawn), the IC50 is reported as “Weak cytotoxic activity”. For `C/C(=C\c1csc(C)n1)[C@@H]1C[C@H](O)[C@H](O)CCC[C@H](C)[C@H](O)[C@@H](C)C(=O)C(C)(C)C(O)CC(=O)O1` (stereo partly drawn), the IC50 was “Weak cytotoxic activity”. With `C/C(=C\c1csc(C)n1)[C@@H]1C[C@@H](Cl)[C@H](O)CCC[C@H](C)[C@H](O)[C@@H](C)C(=O)C(C)(C)[C@@H](O)CC(=O)O1` the IC50 was “Weak cytotoxic activity”. In the case of `COC(C[C@H]1OC(=O)C[C@H](O)C(C)(C)C(=O)[C@H](C)[C@@H](O)[C@@H](C)CCC[C@H]1O)C(C)Cc1csc(C)n1` (stereo partly drawn), the IC50 is reported as “Weak cytotoxic activity”.

Assay: Compound was tested for cytotoxicity against L929 fibroblast cell lines in mouse
Type: functional, cell-based
For `C/C(=C\c1csc(C)n1)[C@@H]1CC(O)C(O)CCC[C@H](C)[C@H](O)[C@@H](C)C(=O)C(C)(C)[C@@H](O)CC(=O)O1` (stereo partly drawn), the IC50 was greater than 4 µg/mL. `C/C(=C\c1csc(C)n1)[C@@H]1CC2OC(C)(C)OC2CCC[C@H](C)[C@H](O)[C@@H](C)C(=O)C(C)(C)[C@@H](O)CC(=O)O1` (stereo partly drawn) gave an IC50 of 0.15 µg/mL (≈ 0.272 µM). For `C/C(=C\c1csc(C)n1)[C@@H]1C/C=C\CCC[C@H](C)[C@H](O)[C@@H](C)C(=O)C(C)(C)[C@@H](O)CC(=O)O1` [EPOTHILONE C], the IC50 was 0.1 µg/mL (≈ 0.209 µM).
